From PubChem BioAssay AID330 (DTP/NCI, 2004)
Toxic doses and inconclusive results are not listed. Rule for the calls: active = survival T/C of 150% or more; inactive = T/C below 125% in these data.

Tested on: P388 leukemia ip, CD2F1 mice, survival T/C
Experiment: NCI In Vivo Anticancer Drug Screen. Data for tumor model P388 Leukemia (intraperitoneal) in CD2F1 (CDF1) mice
Conditions: endpoint: median survival time, higher = longer survival
How it was run: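 Mice carrying the transplanted tumor received test compound or vehicle. Survival was recorded in each group, and the value is the treated-group measurement divided by that of the vehicle-treated control group.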

[1] = dose: 50.0 mg/kg/injection, schedule: Q01DX005 (ip), vehicle: Klucel (hydroxypropylcellulose) (HPC)
[2] = dose: 100.0 mg/kg/injection, schedule: Q01DX005 (ip), vehicle: Klucel (hydroxypropylcellulose) (HPC)
[3] = dose: 200.0 mg/kg/injection, schedule: Q01DX005 (ip), vehicle: Klucel (hydroxypropylcellulose) (HPC)
[4] = dose: 6.25 mg/kg/injection, schedule: Q01DX005 (ip), vehicle: Klucel (hydroxypropylcellulose) (HPC)
[5] = dose: 12.5 mg/kg/injection, schedule: Q01DX005 (ip), vehicle: Klucel (hydroxypropylcellulose) (HPC)
[6] = dose: 25.0 mg/kg/injection, schedule: Q01DX005 (ip), vehicle: Klucel (hydroxypropylcellulose) (HPC)

Measured: T/C

CCN(CC)c1ccc2c(c1)Oc1cc(N(CC)CC)ccc1C21c2ccccc2C(=O)N1c1ccccc1
inactive: [1] 98 % of control | [2] 99 % of control | [3] 103 % of control

O=C(NC(Cc1ccccc1)C(=O)O)OCc1ccccc1 (stereo not drawn) (tested in a mixture with another compound)
inactive: [4] 109 % of control | [5] 106 % of control | [6] 94 % of control

O=C1CC23CCCN2CCc2cc4c(cc2C3=C1O)OCO4 (stereo not drawn)
inactive: dose: 1.56 mg/kg/injection, schedule: Q01DX009 (ip), vehicle: water 98 % of control | dose: 3.13 mg/kg/injection, schedule: Q01DX009 (ip), vehicle: water 104 % of control | dose: 6.25 mg/kg/injection, schedule: Q01DX009 (ip), vehicle: water 98 % of control | dose: 12.5 mg/kg/injection, schedule: Q01DX009 (ip), vehicle: water 92 % of control | dose: 25.0 mg/kg/injection, schedule: Q01DX009 (ip), vehicle: water 88 % of control

COc1cc(C2Oc3c(OC)cc(CC4C(=O)OCC4Cc4ccc(OC)c(OC)c4)cc3C2CO)ccc1O (stereo not drawn)
inactive: dose: 2.5 mg/kg/injection, schedule: Q01DX009 (ip), vehicle: saline with Tween-80 104 % of control | dose: 5.0 mg/kg/injection, schedule: Q01DX009 (ip), vehicle: saline with Tween-80 102 % of control | dose: 10.0 mg/kg/injection, schedule: Q01DX009 (ip), vehicle: saline with Tween-80 101 % of control | dose: 20.0 mg/kg/injection, schedule: Q01DX009 (ip), vehicle: saline with Tween-80 101 % of control

CCc1nc(Cc2ccccc2)nc2c1nc(-c1ccccc1)n2Nc1ccccc1
inactive: dose: 100.0 mg/kg/injection, schedule: Q01DX001 (ip), vehicle: saline with Tween-80 92 % of control | dose: 200.0 mg/kg/injection, schedule: Q01DX001 (ip), vehicle: saline with Tween-80 98 % of control | dose: 400.0 mg/kg/injection, schedule: Q01DX001 (ip), vehicle: saline with Tween-80 92 % of control

COC(=O)[C@@H]1O[C@H]1c1ccccn1
inactive: [6] 96 % of control | [1] 97 % of control | [2] 100 % of control | [3] 97 % of control

c1cc(-c2[nH]c3cc(C4=NCCN4)ccc3c2-c2cc3ccc(C4=NCCN4)cc3[nH]2)ccc1C1=NCCN1
inactive: dose: 3.12 mg/kg/injection, schedule: Q01DX005 (ip), vehicle: Klucel (hydroxypropylcellulose) (HPC) 107 % of control | [4] 96 % of control | [5] 109 % of control

NNC(=O)CN(CC(=O)NN)CC(=O)NN
inactive: dose: 50.0 mg/kg/injection, schedule: Q01DX005 (ip), vehicle: water 99 % of control | dose: 100.0 mg/kg/injection, schedule: Q01DX005 (ip), vehicle: water 101 % of control | dose: 200.0 mg/kg/injection, schedule: Q01DX005 (ip), vehicle: water 110 % of control
